Experiment: mn = molality of the nth substance listed, in mol/kg
Settings: 101.3 kPa, Liquid; for speed of sound: Sing-around technique in a fixed-path interferometer; for mass density: Vibrating tube method

N[C@@H](CCC(=O)O)C(=O)O [L-glutamic acid] + O
Settings	mass density, m1 = 0.01 [kg/m3]	mass density, m1 = 0.02 [kg/m3]	mass density, m1 = 0.03 [kg/m3]	mass density, m1 = 0.04 [kg/m3]	mass density, m1 = 0.05 [kg/m3]	speed of sound, m1 = 0.01 [m/s]	speed of sound, m1 = 0.02 [m/s]	speed of sound, m1 = 0.03 [m/s]	speed of sound, m1 = 0.04 [m/s]	speed of sound, m1 = 0.05 [m/s]
298.15 K	997.642	998.213	998.786	999.352	999.936	1497.4	1498.1	1498.9	1499.6	1500.3
308.15 K	994.598	995.178	995.742	996.302	996.73	1520.4	1521	1521.8	1522.3	1523.2
318.15 K	990.784	991.318	991.875	992.445	993.001	1537	1537.7	1538.1	1539	1539.3

N[C@@H](Cc1ccc(O)cc1)C(=O)O [3-(p-hydroxyphenyl)-L-alanine] + O
Settings	mass density, 298.15 K [kg/m3]	mass density, 308.15 K [kg/m3]	mass density, 318.15 K [kg/m3]	speed of sound, 298.15 K [m/s]	speed of sound, 308.15 K [m/s]	speed of sound, 318.15 K [m/s]
m1 = 0.000125	997.061	994.051	990.231	1496.6	1519.6	1536.3
m1 = 0.00025	997.068	994.058	990.238	1496.8	1519.7	1536.5
m1 = 0.0005	997.082	994.072	990.251	1496.7	1519.8	1536.3
m1 = 0.001	997.112	994.101	990.278	1497.2	1519.7	1536.8
m1 = 0.00125	997.125	994.114	990.29	1496.8	1520.2	1536.4
m1 = 0.0015	997.138	994.126	990.301	1496.8	1519.8	1536.4
m1 = 0.002	997.168	994.152	990.318	1496.8	1519.8	1536.5

— the NIST ThermoML archive (doi:10.1016/j.tca.2014.03.004)
